Where “and” joins values, the source holds several entries; their conditions need not be identical. Equal values may be shown once. Toxic doses and inconclusive results are not listed. The calls were made as follows: active = survival T/C of 150% or more; inactive = T/C below 125% in these data.
Test system: BDF1 mice, P388/VCR leukemia ip, median survival T/C
Assay: NCI In Vivo Anticancer Drug Screen. Data for tumor model P388 Leukemia resistant to Vincristine; NSC 67574 (intraperitoneal) in B6D2F1 (BDF1) mice
Conditions: endpoint: median survival time, higher = longer survival
Experimental: The antitumor activity of compounds was measured in mice bearing transplantable tumors. Survival or tumor size were measured and the results are expressed as the measurement made in the treated group (T) divided by the measurement made in the vehicle treated control group (C). The tumor model used in this assay is P388 Leukemia resistant to Vincristine; NSC 67574 (intraperitoneal) in B6D2F1 (BDF1) mice

[1] = dose: 8.0 mg/kg/injection, schedule: Q04DX003 (ip), vehicle: water
[2] = dose: 5.0 mg/kg/injection, schedule: Q01DX010 (ip), vehicle: saline

Measured: T/C

COc1cccc2c1C(=O)c1c(O)c3c(c(O)c1C2=O)C[C@@](O)(C(C)=O)C[C@@H]3OC1CC(N)C(O)C(C)O1 (stereo partly drawn)
inactive: dose: 3.6 mg/kg/injection, schedule: Q04DX003 (ip), vehicle: water 110 % of control | dose: 6.0 mg/kg/injection, schedule: Q04DX003 (ip), vehicle: water 104 % of control | [1] 114 % of control

Cc1cc(N(CCCl)CCCl)ccc1N=Nc1ccccc1C(=O)O
inactive: [2] 91 % of control and 112 % of control

COc1cc(NS(C)(=O)=O)ccc1Nc1c2ccccc2nc2ccccc12
inactive: dose: 3.6 mg/kg/injection, schedule: Q04DX003 (ip), vehicle: other 122 % of control | dose: 16.7 mg/kg/injection, schedule: Q04DX003 (ip), vehicle: clinical formulation 107 % of control | dose: 16.7 mg/kg/injection, schedule: Q04DX003 (ip), vehicle: other 88 % of control
active: dose: 3.6 mg/kg/injection, schedule: Q04DX003 (ip), vehicle: clinical formulation 188 % of control | dose: 6.0 mg/kg/injection, schedule: Q04DX003 (ip), vehicle: clinical formulation 191 % of control | dose: 10.0 mg/kg/injection, schedule: Q04DX003 (ip), vehicle: clinical formulation 193 % of control | dose: 10.0 mg/kg/injection, schedule: Q04DX003 (ip), vehicle: other 153 % of control

O=C(Nc1ccc(C2=NCCN2)cc1)c1ccc(C(=O)Nc2ccc(C3=NCCN3)cc2)c([N+](=O)[O-])c1
inactive: dose: 6.0 mg/kg/injection, schedule: Q01DX010 (ip), vehicle: saline 103 % of control | dose: 8.0 mg/kg/injection, schedule: Q01DX010 (ip), vehicle: saline 114 % of control | dose: 12.0 mg/kg/injection, schedule: Q01DX010 (ip), vehicle: saline 111 % of control | dose: 18.0 mg/kg/injection, schedule: Q01DX010 (ip), vehicle: saline 104 % of control and 111 % of control

CC[C@@]1(O)C[C@H](OC2CC(N(C)C)C(OC3CC(O)C(OC4CCC(=O)C(C)O4)C(C)O3)C(C)O2)c2c(cc3c(c2O)C(=O)c2c(O)ccc(O)c2C3=O)[C@H]1C(=O)OC (stereo partly drawn)
inactive: dose: 2.88 mg/kg/injection, schedule: Q04DX003 (ip), vehicle: water 118 % of control | dose: 4.8 mg/kg/injection, schedule: Q04DX003 (ip), vehicle: water 117 % of control | [1] 95 % of control

O=C(Nc1ccc(C2=NCCN2)cc1)c1ccc(C(=O)Nc2ccc(C3=NCCN3)cc2)cc1
active: dose: 112.0 mg/kg/injection, schedule: Q01DX010 (ip), vehicle: saline 156 % of control | dose: 167.0 mg/kg/injection, schedule: Q01DX010 (ip), vehicle: saline 173 % of control | dose: 250.0 mg/kg/injection, schedule: Q01DX010 (ip), vehicle: saline 178 % of control

C[C@]12C=CC(=O)C=C1CC[C@@H]1[C@@H]2[C@@H](O)C[C@@]2(C)[C@H]1CC[C@]2(O)C(=O)CO
inactive: dose: 12.5 mg/kg/injection, schedule: Q01DX010 (sc), vehicle: steriod suspending solution 107 % of control and 116 % of control | dose: 25.0 mg/kg/injection, schedule: Q01DX010 (sc), vehicle: steriod suspending solution 103 % of control and 116 % of control | dose: 50.0 mg/kg/injection, schedule: Q01DX010 (sc), vehicle: steriod suspending solution 103 % of control and 120 % of control | dose: 100.0 mg/kg/injection, schedule: Q01DX010 (sc), vehicle: steriod suspending solution 108 % of control and 111 % of control

CC(C)[C@](O)(C(=O)OCC1=CC[N+]2([O-])CC[C@@H](O)[C@@H]12)[C@H](C)O (stereo partly drawn)
inactive: dose: 130.0 mg/kg/injection, schedule: Q01DX009 (ip), vehicle: water 98 % of control | dose: 216.0 mg/kg/injection, schedule: Q01DX009 (ip), vehicle: water 106 % of control | dose: 360.0 mg/kg/injection, schedule: Q01DX009 (ip), vehicle: water 113 % of control | dose: 600.0 mg/kg/injection, schedule: Q01DX009 (ip), vehicle: water 107 % of control

NC(Cc1ccc(N(CCCl)CCCl)cc1)C(=O)O (stereo not drawn)
inactive: dose: 10.0 mg/kg/injection, schedule: Q01DX010 (ip), vehicle: saline 86 % of control and 91 % of control
active: dose: 1.25 mg/kg/injection, schedule: Q01DX010 (ip), vehicle: saline 170 % of control | dose: 2.5 mg/kg/injection, schedule: Q01DX010 (ip), vehicle: saline 190 % of control and 191 % of control | [2] 300 % of control

— PubChem BioAssay AID336 (DTP/NCI, 2004)
